Results on two molecules are retold here after patent US20110319484A1, “NEUROPROTECTIVE COMPOUNDS” (Parque Tecnologico de Ciencias de la Salud, priority 2009, published 2011).

What is called inhibition is the change of the read-out against control, counted positive when it falls.

The test system of experiment [1] is human neuroblastoma SK-N-MC cells. Nature of the experiment: Inhibition of ROS production induced by xanthine/xanthine oxidase (H2DCFDA probe, LDH-normalized). Type of experiment: cell-based. The settings on record: XXO 10 μM-100 mU/ml, 3 h, at 10 μg/ml, inhibition observed at 10 and 20 μg/ml, read-out: maximum inhibition of ROS production relating to XXO. How it is done:
The assay was performed on human neuroblastoma SK-N-MC cells in culture from the American Type Culture Collection (ATCC) (HTB-10), in all cases strict rules of sterility were followed and the manipulation was performed in class II biological safety cabinets following European standard EN 12469. The cells were maintained in Minimum Essential Medium Eagle (MEM) culture medium supplemented with 1 mM sodium pyruvate, 2 mM L-glutamine, 0.1 mM non-essential amino acids, 0.05 mg/ml gentamicin and 10% fetal bovine serum.
The inhibition by the NST0003 compound [(1S,3R,7S,8S,8aR)-1,2,3,7,8,8a-hexahydro-3,7-dimethyl-8-[2-[(2R,4R)-tetrahydro-4-hydroxy-6-oxo-2H-pyran-2-yl]ethyl-1-naphthalenyl propanoate] on the production of reactive oxygen species (ROS) in the SK-N-MC cells, was analyzed. […]
The cells were incubated (at 37° C. and 5% CO2) with these treatments for 3 h, after which time they were washed with HKRB buffer (20 mM HEPES, 103 mM NaCl, 4.77 mM KCl, 0.5 mM CaCl2, 1.2 mM MgCl2, 1.2 mM KH2PO4, 25 mM […], 15 mM glucose; at pH 7.3) after which the 2′,7′-dichlorodihydrofluorescein diacetate (H2DCFDA) probe was added at 30 μM diluted in HKRB buffer and it was incubated for another 2 hours in the same conditions. The reading of the plate was taken in a fluorometer at the conditions of 485 nm for excitation and 538 nm for emission. […]

Experiment [2] shares this test system. In words: Protection against neuronal death induced by apoptosis (camptothecin), WST-1 test. Type of experiment: cell-based. The settings on record: camptothecin 20 nM, 22 h, at 10 μg/ml, protection at 4, 10 and 40 μg/ml. As for the experimental part: To that end, an assay was performed on human neuroblastoma SK-N-MC cells in culture from the ATCC (HTB-10); in all cases strict rules of sterility were followed and the manipulation was performed in class II biological safety cabinets following European standard EN 12469. The cells were maintained in MEM culture medium supplemented with 1 mM sodium pyruvate, 2 mM L-glutamine, 0.1 mM non-essential amino acids, 0.05 mg/ml gentamicin and 10% fetal bovine serum.
The inhibition caused by the compound (1S,3R,7S,8S,8aR)-1,2,3,7,8,8a-hexahydro-3,7-dimethyl-8-[2-[(2R,4R)-tetrahydro-4-hydroxy-6-oxo-2H-pyran-2-yl]ethyl-1-naphthalenyl 2-methylpropanoate (NST0004) of cell death caused by treatment with camptothecin (Campt), which inhibits the topoisomerase I enzyme by preventing duplication of the DNA, which triggers apoptic cell death, was analyzed. […]
The cells were incubated (at 37° C. and 5% CO2) with these treatments for 22 h, after which time the WST-1 reagent (Roche) was added. […] The metabolically active (live) cells reduce tetrazolium salt to formazan by means of the succinate-tetrazolium reductase system (of the mitochondrial respiratory chain) and the formazan which is formed can be detected colorimetrically since it has an absorbance of 440 nm. The reading was taken in a plate reader at 440 nm 2 hours after adding the reagent. […]
In general terms: Formazan colour is commonly taken as a measure of viable cells.

Structures are written as SMILES.

As for `CCC(=O)O[C@H]1C[C@@H](C)C=C2C=C[C@H](C)[C@H](CC[C@@H]3C[C@@H](O)CC(=O)O3)[C@H]21` [NST0003, (1S,3R,7S,8S,8aR)-1,2,3,7,8,8a-hexahydro-3,7-dimethyl-8-[2-[(2R,4R)-tetrahydro-4-hydroxy-6-oxo-2H-pyran-2-yl]ethyl-1-naphthalenyl propanoate], the inhibition at 10 µg/mL in experiment [1] is 33%.

For the molecule `CC(C)C(=O)O[C@H]1C[C@@H](C)C=C2C=C[C@H](C)[C@H](CC[C@@H]3C[C@@H](O)CC(=O)O3)[C@H]21` [NST0004], the “maximum reduction of the percentage of cell death relating to death caused by Camptothecin” value in experiment [2] is reported as 43%.
